“And” between values parts separate entries of the source, which are not always exact repeats. Equal values may be shown once. Some results are limits rather than exact numbers.

Data on 43 compounds can be found in US11452717B2, “Small molecule activators of nicotinamide phosphoribosyltransferase (NAMPT) and uses thereof” (Sanford Burnham Prebys Medical Discovery Institute, priority 2017, dated 2022).

The target in the experiment is NAMPT enzyme (Homo sapiens (Human), UniProt P43490). Nature of the experiment: Enzyme Assay and NMN Detection (NAMPT reaction, fluorescence detection of NMN). Format: biochemical. The note with it: NAMPT activation, NMN formation. An outline of the steps:
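NMN formed was read at ex380/em460 after acetophenone/KOH derivatization and formic acid addition, using a same-day calibration curve. Final conditions: NAMPT 16 nM, nicotinamide 5 uM, PRPP 6.25 uM, ATP 120 uM, pyrophosphatase 0.04 U/ml, pH 7.5 HEPES buffer with MgCl2 and TCEP, 2 h at room temperature.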

NAMPT enzyme, sequence (P43490 whole entry, species assumed): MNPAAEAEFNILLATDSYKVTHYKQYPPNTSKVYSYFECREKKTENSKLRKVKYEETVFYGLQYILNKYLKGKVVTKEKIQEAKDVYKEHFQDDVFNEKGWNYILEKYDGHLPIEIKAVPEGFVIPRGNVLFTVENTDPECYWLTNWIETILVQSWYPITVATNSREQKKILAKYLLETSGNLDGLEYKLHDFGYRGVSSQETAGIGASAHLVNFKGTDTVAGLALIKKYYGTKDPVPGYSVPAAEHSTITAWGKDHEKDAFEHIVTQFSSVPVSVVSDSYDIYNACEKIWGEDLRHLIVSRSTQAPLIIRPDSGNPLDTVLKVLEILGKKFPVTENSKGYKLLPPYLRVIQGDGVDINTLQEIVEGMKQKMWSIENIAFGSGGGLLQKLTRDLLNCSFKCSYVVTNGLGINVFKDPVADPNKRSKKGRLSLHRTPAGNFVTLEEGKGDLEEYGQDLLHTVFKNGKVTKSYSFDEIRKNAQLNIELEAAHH

`O=C(NCc1ccncc1)Nc1ccc(S(=O)(=O)c2ccccc2-c2ccncc2)cc1` [1-[4-(2-Pyridin-4-yl-benzenesulfonyl)-phenyl]-3-pyridin-4-ylmethyl-urea]: the EC50 (Table B-6) was 100 to 2000 nM. Consider `O=C(NCc1cn[nH]c1)Nc1ccc(S(=O)(=O)c2ccccc2-c2ccccc2F)cc1` [1-[4-(2′-Fluoro-biphenyl-2-sulfonyl)-phenyl]-3-(1H-pyrazol-4-ylmethyl)-urea], for which, where the note is “Table B-4”, the EC50 is less than 100 nM. As to `O=C(NCc1ccncc1)Nc1ccc(S(=O)(=O)c2ccccc2-c2ccccc2F)cc1` [1-[4-(2′-Fluoro-biphenyl-2-sulfonyl)-phenyl]-3-pyridin-4-ylmethyl-urea], under “Table B-6”, the EC50 is less than 100 nM. For `COc1ccccc1-c1ccccc1S(=O)(=O)c1ccc(NC(=O)NCc2cn[nH]c2)cc1` [1-[4-(2′-Methoxy-biphenyl-2-sulfonyl)-phenyl]-3-(1H-pyrazol-4-ylmethyl)-urea], the EC50 (Table B-4) was in the range of 5000 to 20000 nM. On to `COc1ccccc1-c1ccccc1S(=O)(=O)c1ccc(NC(=O)NCc2ccncc2)cc1` [1-[4-(2′-Methoxy-biphenyl-2-sulfonyl)-phenyl]-3-pyridin-4-ylmethyl-urea], for which the EC50 (Table B-6) lay in the range of 5000 to 20000 nM. For `O=C(NCc1cn[nH]c1)Nc1ccc(S(=O)(=O)c2ccc(Cl)c(Cl)c2)cc1` [1-[4-(3,4-Dichloro-benzenesulfonyl)-phenyl]-3-(1H-pyrazol-4-ylmethyl)-urea], the EC50 (Table B-4) was in the range of 5000 to 20000 nM. Turning to `O=C(NCc1cnco1)Nc1ccc(S(=O)(=O)c2ccc(Cl)c(Cl)c2)cc1` [1-[4-(3,4-Dichloro-benzenesulfonyl)-phenyl]-3-oxazol-5-ylmethyl-urea], for the setting “Table B-5”, the EC50 is 100 to 2000 nM and 2000 to 5000 nM. In turn, `O=C(NCc1ccncc1)Nc1ccc(S(=O)(=O)c2ccc(Cl)c(Cl)c2)cc1` [1-[4-(3,4-Dichloro-benzenesulfonyl)-phenyl]-3-pyridin-4-ylmethyl-urea] had an EC50 (Table B-6) of 100 to 2000 nM. Consider `O=C(NCc1cn[nH]c1)Nc1ccc(S(=O)(=O)c2ccc(F)c(F)c2)cc1` [1-[4-(3,4-Difluoro-benzenesulfonyl)-phenyl]-3-(1H-pyrazol-4-ylmethyl)-urea], for which the EC50 (Table B-4) lay in the range of 100 to 2000 nM. Compound `O=C(NCc1cnco1)Nc1ccc(S(=O)(=O)c2ccc(F)c(F)c2)cc1` [1-[4-(3,4-Difluoro-benzenesulfonyl)-phenyl]-3-oxazol-5-ylmethyl-urea] had an EC50 (Table B-5) of 100 to 2000 nM. Regarding `O=C(NCc1ccncc1)Nc1ccc(S(=O)(=O)c2ccc(F)c(F)c2)cc1` [1-[4-(3,4-Difluoro-benzenesulfonyl)-phenyl]-3-pyridin-4-ylmethyl-urea], the EC50 (Table B-6) is less than 100 nM.

Under “Table B-1”, `O=C(NCc1cn[nH]c1)Nc1ccc(S(=O)(=O)N2CCc3ccccc3C2)cc1` [1-[4-(3,4-Dihydro-1H-isoquinoline-2-sulfonyl)-phenyl]-3-(1H-pyrazol-4-ylmethyl)-urea] came in with an EC50 of less than 100 nM.

In the case of `Cc1noc(C)c1CNC(=O)Nc1ccc(S(=O)(=O)N2CCc3ccccc3C2)cc1` [1-[4-(3,4-Dihydro-1H-isoquinoline-2-sulfonyl)-phenyl]-3-(3,5-dimethyl-isoxazol-4-ylmethyl)-urea], the EC50 (Table B-1) is more than 20000 nM. The same measure, in the same setting: the result for `O=C(NCc1cnco1)Nc1ccc(S(=O)(=O)N2CCc3ccccc3C2)cc1` [1-[4-(3,4-Dihydro-1H-isoquinoline-2-sulfonyl)-phenyl]-3-oxazol-5-ylmethyl-urea] reads 100 to 2000 nM. For the compound `O=C(NCc1ccncc1)Nc1ccc(S(=O)(=O)N2CCc3ccccc3C2)cc1` [1-[4-(3,4-Dihydro-1H-isoquinoline-2-sulfonyl)-phenyl]-3-pyridin-4-ylmethyl-urea], the EC50 (Table B-2) was in the range of 100 to 2000 nM. Regarding `O=C(NCc1cncs1)Nc1ccc(S(=O)(=O)N2CCc3ccccc3C2)cc1` [1-[4-(3,4-Dihydro-1H-isoquinoline-2-sulfonyl)-phenyl]-3-thiazol-5-ylmethyl-urea], the EC50 (Table B-1) lay within 100 to 2000 nM. `O=C(NCc1cn[nH]c1)Nc1ccc(S(=O)(=O)c2cc(F)cc(F)c2)cc1` [1-[4-(3,5-Difluoro-benzenesulfonyl)-phenyl]-3-(1H-pyrazol-4-ylmethyl)-urea]: the EC50 (Table B-4) was less than 100 nM. Turning to `O=C(NCc1cnco1)Nc1ccc(S(=O)(=O)c2cc(F)cc(F)c2)cc1` [1-[4-(3,5-Difluoro-benzenesulfonyl)-phenyl]-3-oxazol-5-ylmethyl-urea], for the setting “Table B-5”, the EC50 lay within 100 to 2000 nM. For the setting “Table B-6”, `O=C(NCc1ccncc1)Nc1ccc(S(=O)(=O)c2cc(F)cc(F)c2)cc1` [1-[4-(3,5-Difluoro-benzenesulfonyl)-phenyl]-3-pyridin-4-ylmethyl-urea] registered an EC50 of 100 to 2000 nM.

As for `O=C(NCc1cn[nH]c1)Nc1ccc(S(=O)(=O)c2cccc(Cl)c2)cc1` [1-[4-(3-Chloro-benzenesulfonyl)-phenyl]-3-(1H-pyrazol-4-ylmethyl)-urea], the EC50 (Table B-1) is less than 100 nM. Turning to `O=C(NCc1cn[nH]c1)Nc1ccc(S(=O)(=O)c2cccc(I)c2)cc1` [1-[4-(3-Iodo-benzenesulfonyl)-phenyl]-3-(1H-pyrazol-4-ylmethyl)-urea], for the setting “Table B-4”, the EC50 is less than 100 nM. `O=C(NCc1ccncc1)Nc1ccc(S(=O)(=O)c2cccc(I)c2)cc1` [1-[4-(3-Iodo-benzenesulfonyl)-phenyl]-3-pyridin-4-ylmethyl-urea] registered an EC50 (Table B-6) of less than 100 nM.

For the setting “Table B-1”, `COc1cccc(S(=O)(=O)c2ccc(NC(=O)NCc3cn[nH]c3)cc2)c1` [1-[4-(3-Methoxy-benzenesulfonyl)-phenyl]-3-(1H-pyrazol-4-ylmethyl)-urea] returned an EC50 of less than 100 nM. Consider `COc1cccc(S(=O)(=O)c2ccc(NC(=O)NCc3ccncc3)cc2)c1` [1-[4-(3-Methoxy-benzenesulfonyl)-phenyl]-3-pyridin-4-ylmethyl-urea], for which the EC50 (Table B-2) was less than 100 nM. In the case of `CC1Cc2ccccc2CN1S(=O)(=O)c1ccc(NC(=O)NCc2ccncc2)cc1` (stereo not shown) [1-[4-(3-Methyl-3,4-dihydro-1H-isoquinoline-2-sulfonyl)-phenyl]-3-pyridin-4-ylmethyl-urea], where the note is “Table B-2”, the EC50 lay in the range of 100 to 2000 nM. `COc1cccc(S(=O)(=O)c2ccc(NC(=O)NCc3cnco3)cc2)c1` [1-[4-(3-methoxy-benzenesulfonyl)-phenyl]-3-oxazol-5-ylmethyl-urea] had an EC50 (Table B-5) of 100 to 2000 nM. Where the note is “Table B-4”, `O=C(NCc1cn[nH]c1)Nc1ccc(S(=O)(=O)c2ccccc2-c2cccc(Cl)c2)cc1` [1-[4-(3′-Chloro-biphenyl-2-sulfonyl)-phenyl]-3-(1H-pyrazol-4-ylmethyl)-urea] had an EC50 of 100 to 2000 nM. Consider `O=C(NCc1ccncc1)Nc1ccc(S(=O)(=O)c2ccccc2-c2cccc(Cl)c2)cc1` [1-[4-(3′-Chloro-biphenyl-2-sulfonyl)-phenyl]-3-pyridin-4-ylmethyl-urea], for which, under “Table B-6”, the EC50 lay in the range of 100 to 2000 nM. Turning to `O=C(NCc1cn[nH]c1)Nc1ccc(S(=O)(=O)c2ccccc2-c2cccc(F)c2)cc1` [1-[4-(3′-Fluoro-biphenyl-2-sulfonyl)-phenyl]-3-(1H-pyrazol-4-ylmethyl)-urea], under “Table B-4”, the EC50 was less than 100 nM. Regarding `O=C(NCc1ccncc1)Nc1ccc(S(=O)(=O)c2ccccc2-c2cccc(F)c2)cc1` [1-[4-(3′-Fluoro-biphenyl-2-sulfonyl)-phenyl]-3-pyridin-4-ylmethyl-urea], the EC50 (Table B-6) was less than 100 nM.

Compound `COc1cccc(-c2ccccc2S(=O)(=O)c2ccc(NC(=O)NCc3cn[nH]c3)cc2)c1` [1-[4-(3′-Methoxy-biphenyl-2-sulfonyl)-phenyl]-3-(1H-pyrazol-4-ylmethyl)-urea] gave an EC50 (Table B-4) of 2000 to 5000 nM. Regarding `COc1cccc(-c2ccccc2S(=O)(=O)c2ccc(NC(=O)NCc3ccncc3)cc2)c1` [1-[4-(3′-Methoxy-biphenyl-2-sulfonyl)-phenyl]-3-pyridin-4-ylmethyl-urea], under “Table B-6”, the EC50 was 100 to 2000 nM.

Consider `Cc1cccc(-c2ccccc2S(=O)(=O)c2ccc(NC(=O)NCc3cn[nH]c3)cc2)c1` [1-[4-(3′-Methyl-biphenyl-2-sulfonyl)-phenyl]-3-(1H-pyrazol-4-ylmethyl)-urea], for which, for the setting “Table B-4”, the EC50 lay in the range of 100 to 2000 nM.

For the compound `Cc1cccc(-c2ccccc2S(=O)(=O)c2ccc(NC(=O)NCc3ccncc3)cc2)c1` [1-[4-(3′-Methyl-biphenyl-2-sulfonyl)-phenyl]-3-pyridin-4-ylmethyl-urea], under “Table B-6”, the EC50 lay within 100 to 2000 nM. For `O=C(NCc1cn[nH]c1)Nc1ccc(S(=O)(=O)c2ccc(Cl)cc2)cc1` [1-[4-(4-Chloro-benzenesulfonyl)-phenyl]-3-(1H-pyrazol-4-ylmethyl)-urea], the EC50 (Table B-1) was less than 100 nM. For the compound `O=C(NCc1ccncc1)Nc1ccc(S(=O)(=O)c2ccc(Cl)cc2)cc1` [1-[4-(4-Chloro-benzenesulfonyl)-phenyl]-3-pyridin-4-ylmethyl-urea], the EC50 (Table B-2) is 100 to 2000 nM. `N#Cc1ccc(S(=O)(=O)c2ccc(NC(=O)NCc3cn[nH]c3)cc2)cc1` [1-[4-(4-Cyano-benzenesulfonyl)-phenyl]-3-(1H-pyrazol-4-ylmethyl)-urea]: the EC50 (Table B-4) is 100 to 2000 nM.

Where the note is “Table B-5”, `N#Cc1ccc(S(=O)(=O)c2ccc(NC(=O)NCc3cnco3)cc2)cc1` [1-[4-(4-Cyano-benzenesulfonyl)-phenyl]-3-oxazol-5-ylmethyl-urea] came in with an EC50 of 100 to 2000 nM. `N#Cc1ccc(S(=O)(=O)c2ccc(NC(=O)NCc3ccncc3)cc2)cc1` [1-[4-(4-Cyano-benzenesulfonyl)-phenyl]-3-pyridin-4-ylmethyl-urea] showed an EC50 (Table B-6) of 100 to 2000 nM. `COc1ccc(S(=O)(=O)c2ccc(NC(=O)NCc3cn[nH]c3)cc2)cc1` [1-[4-(4-Methoxy-benzenesulfonyl)-phenyl]-3-(1H-pyrazol-4-ylmethyl)-urea] registered an EC50 (Table B-1) of less than 100 nM. For the setting “Table B-5”, `COc1ccc(S(=O)(=O)c2ccc(NC(=O)NCc3cnco3)cc2)cc1` [1-[4-(4-Methoxy-benzenesulfonyl)-phenyl]-3-oxazol-5-ylmethyl-urea] had an EC50 of 100 to 2000 nM.

In the case of `COc1ccc(S(=O)(=O)c2ccc(NC(=O)NCc3ccncc3)cc2)cc1` [1-[4-(4-Methoxy-benzenesulfonyl)-phenyl]-3-pyridin-4-ylmethyl-urea], under “Table B-2”, the EC50 is 100 to 2000 nM. In the case of `CN1CCN(S(=O)(=O)c2ccc(NC(=O)NCc3ccncc3)cc2)CC1` [1-[4-(4-Methyl-piperazine-1-sulfonyl)-phenyl]-3-pyridin-4-ylmethyl-urea], where the note is “Table B-2”, the EC50 fell in the range of 100 to 2000 nM.
